According to PubChem BioAssay AID1919007 (Molecular Pharmacology Branch, DTP, NCI, 2023):

Tested on: A498 complex spheroids with HUVEC/MSC, growth
Experiment: Anticancer human tumor A498 cell line growth inhibition [AhR];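 note: seven day exposure starting three days after spheroid seeding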;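 for viability, T/C: luminescence signal used as a surrogate for viable cells; luminescence viability scaled so 100% equals DMSO vehicle wells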
Details: for IC50: curve of first compound; for viability, T/C: stronger effect = lower value
Text: Multicellular complex tumor spheroid response to aryl hydrocarbon receptor antagonists in combination with a variety of drugs and investigational agents in selected tumor cell lines
The current study was undertaken to assess response to aryl hydrocarbon receptor antagonists in combination with standard-of-care drugs and investigational agents in solid tumor complex spheroid models. Complex spheroids include a stromal component modeled by human endothelial cells (HUVEC) and fibroblasts modeled by human mesenchymal stem cells (MSCs). The concentration ranges selected for each drug and investigational agent were based upon clinically achievable concentrations if the clinical Cmax of the agent was known.
Compounds. The drugs and investigational agents: BAY 2416964 (NSC825713), GNF351 (NSC835774), CH-223191 (NSC835775), CPI-455 (NSC825282), aza-TdCyd (NSC777586), decitabine (NSC127716), belinostat (NSC758774), entinostat (NSC756642), pevonedistat (NSC761192), tazemetostat (NSC777109), talazoparib (NSC765396), olaparib (NSC753686), selinexor (NSC780203), nedisertib (M3814, NSC802822), bortezomib (NSC756655), venetoclax (NSC766270), doxorubicin (NSC123127), elimusertib (BAY189344, NSC800525), ceralasertib (AZD6738, NSC777638), TAK-243 (NSC785004), alisertib (NSC759677), etoposide (NSC141540), topotecan (NSC609699), eribulin (NSC707389), gemcitabine (NSC613327), carboplatin (NSC241240), cisplatin (NSC119875), and SN-38 (NSC673596) were obtained from the National Cancer Institute (NCI) Developmental Therapeutics Program Chemical Repository (32). The FDA-approved anticancer drug set is available from the Developmental Therapeutics Program at https://dtp.cancer.gov/organization/dscb/obtaining/available plates.htm. […] The stock solutions were prepared in dimethyl sulfoxide (DMSO, Sigma-Aldrich, St. Louis, MO, cat. D2650), except for the platinum compounds which were prepared in saline (Quality Biological, Gaithersburg, MD, cat. 114-055-101), at 800-fold the tested concentration and stored at -70 degrees C prior to their use. All drugs and investigational agents were tested over a range starting from a high concentration at or near the clinical Cmax and decreasing in half-log increments. If the clinical Cmax for an agent had not been determined, the highest concentration tested was 10 microM (Table 1).
Cell Culture. All cells were maintained in an incubator at 37 degrees C and 5% CO2 with 95% humidity. The PDC lines were cultured according to standard operating procedures established by the NCI PDMR (https://pdmr.cancer.gov). Briefly, all PDCs were thawed and cultured in Matrigel-coated flasks prepared with a working solution of 1X Ham's F-12 nutrient mix, without supplementation (Invitrogen, Waltham, MA, cat. 11765054), 100 U/mL penicillin-streptomycin (Invitrogen, cat. 15140122), and 2.5% Matrigel (Corning Inc., Corning, NY, cat. 354248) for the first three passages. All PDCs were cultured in complete DMEM/F-12 media containing advanced DMEM/F-12 (Invitrogen, cat. 12634028), 4.9% defined fetal bovine serum, heat inactivated (HyClone Laboratories Inc., Logan, UT, cat. SH30070.03HI), 389 ng/mL hydrocortisone (Sigma-Aldrich, cat. H4001), 9.7 ng/mL human EGF recombinant protein (Invitrogen, cat. PHG0313), 23.4 microg/mL adenine (Sigma-Aldrich, cat. A2786), 97.3 U/mL penicillin-streptomycin (Invitrogen, cat. 15140122), 1.9 mM L-glutamine (Invitrogen, cat. 25030081), and 9.7 microM Y-27632 dihydrochloride (Tocris Bioscience, Bristol, United Kingdom, cat. 1254). The PDCs were cultured in complete DMEM/F12 media without 10 microM Y-27632 dihydrochloride for at least two passages prior to the screen. The established cell lines NCI-H1341 and […] were cultured in DMEM/F-12, HEPES (Invitrogen, cat. 11330032), 5% defined fetal bovine serum (HyClone Laboratories Inc., cat. SH30070.03), ITS premix universal culture supplement [insulin (5 microg/mL), transferrin (5 microg/mL), and selenious acid (5 ng/mL)] […]

[1] = second compound 0.1 µM, first compound 0.0316 µM
[2] = second compound 0.1 µM, first compound 0.1 µM
[3] = second compound 0.1 µM, first compound 0.316 µM
[4] = second compound 0.1 µM, first compound 1 µM
[5] = second compound 0.1 µM, first compound 3.16 µM
[6] = second compound 0.1 µM, first compound 10 µM
[7] = second compound 0.316 µM, first compound 0.0316 µM
[8] = second compound 0.316 µM, first compound 0.1 µM
[9] = second compound 0.316 µM, first compound 0.316 µM
[10] = second compound 0.316 µM, first compound 1 µM
[11] = second compound 0.316 µM, first compound 3.16 µM
[12] = second compound 0.316 µM, first compound 10 µM
[13] = second compound 1 µM, first compound 0.0316 µM
[14] = second compound 1 µM, first compound 0.1 µM
[15] = second compound 1 µM, first compound 0.316 µM
[16] = second compound 1 µM, first compound 1 µM
[17] = second compound 1 µM, first compound 3.16 µM
[18] = second compound 1 µM, first compound 10 µM
[19] = second compound 3.16 µM, first compound 0.0316 µM
[20] = second compound 3.16 µM, first compound 0.1 µM
[21] = second compound 3.16 µM, first compound 0.316 µM
[22] = second compound 3.16 µM, first compound 1 µM
[23] = second compound 3.16 µM, first compound 3.16 µM
[24] = second compound 3.16 µM, first compound 10 µM
[25] = second compound 10 µM, first compound 0.0316 µM
[26] = second compound 10 µM, first compound 0.1 µM
[27] = second compound 10 µM, first compound 0.316 µM
[28] = second compound 10 µM, first compound 1 µM
[29] = second compound 10 µM, first compound 3.16 µM
[30] = second compound 10 µM, first compound 10 µM

Structure (SMILES)	IC50 (second compound 0.1 µM)	IC50 (second compound 0.316 µM)	IC50 (second compound 1 µM)	IC50 (second compound 3.16 µM)	IC50 (second compound 10 µM)	viability, T/C [1]	viability, T/C [2]	viability, T/C [3]	viability, T/C [4]	viability, T/C [5]	viability, T/C [6]	viability, T/C [7]	viability, T/C [8]	viability, T/C [9]	viability, T/C [10]	viability, T/C [11]	viability, T/C [12]	viability, T/C [13]	viability, T/C [14]	viability, T/C [15]	further results
O=C(c1cc(Cc2n[nH]c(=O)c3ccccc23)ccc1F)N1CCN(C(=O)C2CC2)CC1 + CC(CO)NC(=O)c1cc(-c2ccc(Cl)cc2)nn(-c2cnn(C)c2)c1=O	> 10000 nM	> 10000 nM	> 10000 nM	> 10000 nM	> 10000 nM	105%	93.3%	102%	84.6%	94.6%	85.3%	97%	106%	99.9%	81.2%	87.4%	81.7%	99%	96.6%	94.6%	viability, T/C [16]: 77.9%; viability, T/C [17]: 87.2%; viability, T/C [18]: 79.9%; viability, T/C [19]: 91.3%; viability, T/C [20]: 81.7%; viability, T/C [21]: 83.5%; viability, T/C [22]: 77.2%; viability, T/C [23]: 79%; viability, T/C [24]: 70.3%; viability, T/C [25]: 71.7%; viability, T/C [26]: 67.6%; viability, T/C [27]: 69.1%; viability, T/C [28]: 61.6%; viability, T/C [29]: 64.1%; viability, T/C [30]: 62%
O=C(C=Cc1cccc(S(=O)(=O)Nc2ccccc2)c1)NO + Cc1cncc(-c2nc(NCCc3c[nH]c4ccccc34)c3ncn(C(C)C)c3n2)c1	1260 nM	1380 nM	1120 nM	119 nM	< 31.6 nM	92.1%	90.3%	63.2%	54.4%	37.4%	15.1%	94.5%	88.1%	73.5%	53.8%	36.7%	13.8%	83.9%	85%	64.7%	viability, T/C [16]: 52.4%; viability, T/C [17]: 33.5%; viability, T/C [18]: 14.9%; viability, T/C [19]: 48.5%; viability, T/C [20]: 51.9%; viability, T/C [21]: 50%; viability, T/C [22]: 42.5%; viability, T/C [23]: 31.2%; viability, T/C [24]: 11.8%; viability, T/C [25]: 4.64%; viability, T/C [26]: 4.39%; viability, T/C [27]: 4.66%; viability, T/C [28]: 3.81%; viability, T/C [29]: 2.39%; viability, T/C [30]: 2.67%
O=C(C=Cc1cccc(S(=O)(=O)Nc2ccccc2)c1)NO + CC(CO)NC(=O)c1cc(-c2ccc(Cl)cc2)nn(-c2cnn(C)c2)c1=O	812 nM	719 nM	704 nM	612 nM	298 nM	82.8%	79.2%	63.6%	42.5%	32.6%	9.53%	80.2%	74.3%	64.5%	39.4%	31.9%	9.41%	80.5%	80.8%	61%	viability, T/C [16]: 42.2%; viability, T/C [17]: 28.1%; viability, T/C [18]: 9.7%; viability, T/C [19]: 73.1%; viability, T/C [20]: 72.8%; viability, T/C [21]: 58.6%; viability, T/C [22]: 39.6%; viability, T/C [23]: 28.8%; viability, T/C [24]: 6.66%; viability, T/C [25]: 67%; viability, T/C [26]: 56.6%; viability, T/C [27]: 53.8%; viability, T/C [28]: 33.7%; viability, T/C [29]: 25.6%; viability, T/C [30]: 6.56%
